Reference: BindingDB's records for doi:10.1021/jm00170a007 (Pfizer, 1990)

Columns and labels:
[1] = inhibitory activity against 5-hydroxytryptamine 1C receptor of pig choroid plexus using [3H]mesulergine as the radioligand
[2] = Compound was evaluated for its inhibitory activity against 5-hydroxytryptamine 1D receptor of bovine caudate using [3H]5-HT as the radioligand

FC(F)(F)c1ccc2c(c1)nc(N1CCNCC1)c1cccn12 [4-Piperazin-1-yl-7-trifluoromethyl-pyrrolo[1,2-a]quinoxaline(desmethyl-CGS-12066B)] gave an IC50 [1] of 10 µM and an IC50 [2] of 0.19 µM.
